Results as given in patent US20230321181A1, “COMPOSITION FOR PREVENTION, IMPROVEMENT OR TREATMENT OF ALLERGIC DISEASE OR ITCHING COMPRISING PENTAPEPTIDE AS ACTIVE INGREDIENT” (CAREGEN CO, LTD., priority 2020, published 2023).

What was measured:
[1] = High temperature stability at 121° C. (HPLC); type: physicochemical; details: 1000 ppm in sterile distilled water, 15 and 30 minutes
Protocol: The peptide of the present invention was dissolved in sterile distilled water at a concentration of 1000 ppm, heated at 121° C. for 15 minutes and 30 minutes, followed by HPLC analysis.

mouse splenocytes = assay: Expression of inflammation-related cytokines in splenocytes (RT-PCR); type: cell-based; details: TNF-α induced, 30 minutes, vs control (NC)
Protocol: In order to confirm the effect of inhibiting allergic inflammatory response and improving atopic dermatitis by the pentapeptide of the present invention, the expression pattern of inflammation-related cytokines was confirmed using mouse splenocytes.
Specifically, after separating mouse splenocytes, the cells were inoculated into a 24-well plate at a density of 1×10^7 cells/well, and then cultured overnight at a 37° C., 5% CO2 incubator. After changing the medium to a serum-free medium, 4 hours later, the pentapeptide of the present invention and TNF-α were treated and cultured for 30 minutes. At this time, 20 μg/mL of ketotifen was used as a positive control.
After recovering the cells and then isolating RNA, cDNA was synthesized using a cDNA synthesis kit (Intron, Korea). A polymerase chain reaction was performed using the synthesized cDNA, PCR premix (Intron, Korea) and TNF-α, IL-113 and COX-2 primers, and the amplified PCR product was electrophoresed on an agarose gel to confirm a DNA band. The primer sequences used at this time are as shown in [Table 2].

[2] = High temperature stability during long-term storage at 45° C. (HPLC); type: physicochemical; details: 1000 ppm in sterile distilled water, 7 to 75 days
Protocol: The peptide of the present invention consisting of the amino acid sequence of SEQ ID NO: 1 was dissolved in sterile distilled water at a concentration of 1000 ppm, stored at 45° C. for 7 days, 14 days, 28 days, 60 days and 75 days, followed by HPLC analysis.

[3] = test system: mast cells (rat basophilic leukemia cell line, RBL-2H3); assay: Degranulation (β-hexosaminidase release) in DNP-IgE/DNP-HSA stimulated mast cells; type: cell-based; details: 10 μM or 100 μM, 30 min pretreatment, DNP-IgE sensitized, DNP-HSA 3 hours, vs control (NC)
Protocol: In order to confirm the effect of inhibiting allergic inflammatory response and improving atopic dermatitis by the pentapeptide of the present invention, the degree of degranulation was confirmed using mast cells (rat basophilic leukemia cell line, RBL-2H3).
Specifically, RBL-2H3 cells were inoculated into a 12-well plate at a density of 5×10^5 cells/well, and then cultured overnight at a 37° C., 5% CO2 incubator. Then, the cells were sensitized by adding DNP-IgE to a complete medium. After 3 hours, it was washed 3 times with DPBS and then PIPES buffer was added thereto. In addition, an immune response was induced by pretreatment with the pentapeptide of the present invention synthesized in Example 1 for 30 minutes and then with DNP-HSA for 3 hours. After that, 25 μL of the supernatant was recovered, 25 μL of the substrate solution (5 mM p-nitrophenyl-N-acetyl-β-D-glucosaminide dissolved in 0.2 M sodium citrate buffer, pH 4.5) was added thereto, and then incubated at 37° C. for 90 minutes to react. After the reaction, 200 μL of stop solution (0.1 M Na2CO3/NaHCO3, pH 10.0) was added to each well to stop the enzymatic reaction, and absorbance was measured at 405 nm using a microplate reader. β-hexosamidase secreted from the supernatant was quantified according to Equation 1 below after adding 0.5% Triton X-100 solution to the cells. […]

[4] = test system: mast cells (rat basophilic leukemia cell line, RBL-2H3); assay: Expression of inflammation-related cytokines in mast cells (RT-PCR); type: cell-based; details: RBL-2H3, DNP-IgE sensitized, DNP-HSA 2 hours, vs control (NC)
Protocol: In order to confirm the effect of inhibiting allergic inflammatory response and improving atopic dermatitis by the pentapeptide of the present invention, the expression pattern of inflammation-related cytokines was confirmed using mast cells (rat basophilic leukemia cell line, RBL-2H3).
Specifically, RBL-2H3 cells were inoculated into a 12-well plate at a density of 5×10^5 cells/well, and then cultured overnight at a 37° C., 5% CO2 incubator. Then, the cells were sensitized by adding DNP-IgE to a complete medium. After 3 hours, it was washed 3 times with DPBS and then PIPES buffer was added thereto. In addition, an immune response was induced by pretreatment with the pentapeptide of the present invention synthesized in Example 1 for 30 minutes and then with DNP-HSA for 2 hours. At this time, 20 μg/mL of ketotifen was used as a positive control.
After recovering the cells and then isolating RNA, cDNA was synthesized from the isolated RNA using a cDNA synthesis kit (Intron, Korea). A polymerase chain reaction was performed using the synthesized cDNA, PCR premix (Intron, Korea) and IL-3, IL-4, and TNF-α primers, and the amplified PCR product was electrophoresed on an agarose gel to confirm a DNA band. The primer sequences used at this time are as shown in [Table 1].

**Q.** With “KFLIK (Pentapeptide) [pentapeptide of the present invention]” as the substance, how does the “high-temperature stability at maximum heating temperature” value [1] read?
**A.** maintained stability for 30 minutes

**Q.** And the “expression of COX-2” value (mouse splenocytes)?
**A.** significantly reduced

**Q.** And the “expression of IL-1β” value (mouse splenocytes)?
**A.** significantly reduced

**Q.** And the “expression of TNF-α” value (mouse splenocytes)?
**A.** significantly reduced

**Q.** And the “high-temperature stability during long-term storage” value [2]?
**A.** maintained stability for 75 days

**Q.** What about the “release amount of β-hexosamidase” value [3] of the same substance?
**A.** decreased in a concentration-dependent manner

**Q.** And the “expression of IL-3” value [4]?
**A.** significantly reduced

**Q.** And the “expression of IL-4” value [4]?
**A.** significantly reduced

**Q.** What about the “expression of TNF-α” value [4] of the same substance?
**A.** significantly reduced
